Literature values in article PMC6748410, “A phase 2 study of an oral mTORC1/mTORC2 kinase inhibitor (CC-223) for non-pancreatic neuroendocrine tumors with or without carcinoid symptoms” (PLoS ONE, 2019).

Test system: NET arising from the pancreas, lung, or GI tract
Set-up: method as in PMID 26703889, PMID 21306238
Details: cited from earlier work

Compound: CO[C@H]1C[C@@H]2CC[C@@H](C)[C@@](O)(O2)C(=O)C(=O)N2CCCC[C@H]2C(=O)O[C@H]([C@H](C)C[C@@H]2CC[C@@H](OCCO)[C@H](OC)C2)CC(=O)[C@H](C)/C=C(\C)[C@@H](O)[C@@H](OC)C(=O)[C@H](C)C[C@H](C)/C=C/C=C/C=C/1C [everolimus]
- Median progression-free survival (PFS): 11.0 months
